{
  "source": "patent US20150224066A1",
  "about": "(priority 2012, published 2015)",
  "key": {"S. aureus MN8 [1]": {"system": "S. aureus MN8", "type": "cell-based, Staphylococcus aureus"}, "B. anthracis Sterne": {"system": "B. anthracis Sterne", "type": "cell-based, Bacillus anthracis", "conditions": "for antimicrobial activity / growth inhibition: 24 h incubation; for bactericidal concentration / bacteriostatic concentration: 24 h"}, "[2]": {"system": "Streptococcus pyogenes MNWA", "type": "cell-based"}, "[3]": {"system": "Streptococcus agalactiae MNSI", "type": "cell-based"}, "S. aureus MN8 [4]": {"system": "S. aureus MN8", "type": "cell-based, Staphylococcus aureus", "remark": "listed apart in the source"}, "[5]": {"system": "TSST-1 production by S. aureus MN8", "type": "cell-based, Staphylococcus aureus"}, "[6]": {"system": "TSST-1 production by S. aureus MNPE", "type": "cell-based, Staphylococcus aureus"}, "[7]": {"system": "TSST-1 production by S. aureus CDC587", "type": "cell-based, Staphylococcus aureus"}, "S. aureus MN8 [8]": {"system": "S. aureus MN8", "type": "cell-based, Staphylococcus aureus", "remark": "listed apart in the source"}, "S. aureus MNPE": {"system": "S. aureus MNPE", "type": "cell-based, Staphylococcus aureus"}, "S. aureus": {"system": "S. aureus", "type": "cell-based, Staphylococcus aureus"}, "S. aureus CDC587": {"system": "S. aureus CDC587", "type": "cell-based, Staphylococcus aureus"}},
  "note": "Several values for one entry are separate records, joined by “and”; a condition that tells them apart may be missing. Identical values can stand only once. Entries after “also recorded” stand apart in the source; their conditions may differ. Like-named read-outs stand apart in the source and are kept apart here.",
  "data": [
    {"smiles": "O=C1C=CC(=O)c2ccccc21", "note": "[1,4-naphthoquinone]", "values": [
      {"measurement": "antimicrobial activity / growth inhibition", "setting": "S. aureus MN8 [1]", "value": "strong antimicrobial activity"},
      {"measurement": "fold less active than menadione", "setting": "S. aureus MN8 [1]", "value": "approximately 2 fold"},
      {"measurement": "fold less active than menadione", "setting": "B. anthracis Sterne", "value": "approximately 2 fold"},
      {"measurement": "antimicrobial activity / growth inhibition", "setting": "B. anthracis Sterne", "value": "strong antimicrobial activity"},
      {"measurement": "antimicrobial activity / growth inhibition", "setting": "[2]", "value": "strong antimicrobial activity"},
      {"measurement": "fold less active than menadione", "setting": "[2]", "value": "approximately 2 fold"},
      {"measurement": "antimicrobial activity / growth inhibition", "setting": "[3]", "value": "strong antimicrobial activity"},
      {"measurement": "fold less active than menadione", "setting": "[3]", "value": "approximately 2 fold"}
    ]},
    {"smiles": "CCCCCCCCCCCC(=O)OCC(O)CO", "note": "(stereo not drawn) [GML, glycerol monolaurate]", "values": [
      {"measurement": "growth inhibition of S. aureus MN8", "setting": "S. aureus MN8 [4]", "value": "did not inhibit; also recorded: not inhibitory"}
    ]},
    {"smiles": "COC1=C(OC)C(=O)C(C/C=C(\\C)CCC=C(C)C)=C(C)C1=O", "note": "[coenzyme Q2]", "values": [
      {"measurement": "bactericidal concentration (≧3 log drop in CFUs/ml)", "setting": "S. aureus MN8 [1]", "value": 50, "unit": "μg/ml"},
      {"measurement": "bacteriostatic concentration (<3 log drop in CFUs/ml)", "setting": "S. aureus MN8 [1]", "value": 25, "unit": "μg/ml"},
      {"measurement": "bactericidal concentration", "setting": "B. anthracis Sterne", "value": "≥ 25", "unit": "µg/mL"},
      {"measurement": "bacteriostatic concentration", "setting": "B. anthracis Sterne", "value": 12.5, "unit": "µg/mL"}
    ]},
    {"smiles": "COC1=C(OC)C(=O)C(C/C=C(\\C)CC/C=C(\\C)CCC=C(C)C)=C(C)C1=O", "note": "[coenzyme Q3]", "values": [
      {"measurement": "bactericidal concentration (≧3 log drop in CFUs/ml)", "setting": "S. aureus MN8 [1]", "value": 50, "unit": "μg/ml"},
      {"measurement": "bacteriostatic concentration (<3 log drop in CFUs/ml)", "setting": "S. aureus MN8 [1]", "value": 25, "unit": "μg/ml"},
      {"measurement": "bactericidal concentration", "setting": "B. anthracis Sterne", "value": 50, "unit": "µg/mL"},
      {"measurement": "bacteriostatic concentration", "setting": "B. anthracis Sterne", "value": 25, "unit": "µg/mL"}
    ]},
    {"smiles": "COC1=C(OC)C(=O)C(C/C=C(\\C)CC/C=C(\\C)CC/C=C(\\C)CC/C=C(\\C)CC/C=C(\\C)CC/C=C(\\C)CC/C=C(\\C)CC/C=C(\\C)CC/C=C(\\C)CCC=C(C)C)=C(C)C1=O", "note": "[coenzyme Q10, reference compound]", "values": [
      {"measurement": "antimicrobial activity / growth inhibition", "setting": "S. aureus MN8 [1]", "value": "no antimicrobial activity"},
      {"measurement": "antimicrobial activity / growth inhibition", "setting": "B. anthracis Sterne", "value": "no antimicrobial activity"},
      {"measurement": "antimicrobial activity / growth inhibition", "setting": "[2]", "value": "lacked antimicrobial activity"},
      {"measurement": "inhibition of TSST-1 production", "setting": "[5]", "value": "did not inhibit"},
      {"measurement": "inhibition of TSST-1 production", "setting": "[6]", "value": "did not inhibit"},
      {"measurement": "antimicrobial activity / growth inhibition", "setting": "[3]", "value": "lacked antimicrobial activity"},
      {"measurement": "inhibition of TSST-1 production", "setting": "[7]", "value": "did not inhibit"}
    ]},
    {"smiles": "CC1=CC(=O)c2ccccc2C1=O", "note": "[menadione]", "values": [
      {"measurement": "antimicrobial activity / growth inhibition", "setting": "S. aureus MN8 [1]", "value": "inhibits the growth; also recorded: strong antimicrobial activity"},
      {"measurement": "bactericidal concentration", "setting": "S. aureus MN8 [8]", "value": "≥ 50", "unit": "µg/mL"},
      {"measurement": "concentration of complete killing", "setting": "S. aureus MN8 [8]", "value": 200, "unit": "µg/mL"},
      {"measurement": "difference in bactericidal concentration, anaerobic versus aerobic", "setting": "S. aureus MN8 [8]", "value": 4, "unit": "fold"},
      {"measurement": "difference in concentration of complete killing, anaerobic versus aerobic", "setting": "S. aureus MN8 [8]", "value": 16, "unit": "fold"},
      {"measurement": "growth inhibition when cultured aerobically compared to anaerobically", "setting": "S. aureus MN8 [8]", "value": "more effective"},
      {"measurement": "antimicrobial activity", "setting": "S. aureus MNPE", "value": "comparably bacteriostatic and bactericidal"},
      {"measurement": "bactericidal concentration", "setting": "B. anthracis Sterne", "value": "≥ 25", "unit": "µg/mL"},
      {"measurement": "bacteriostatic concentration", "setting": "B. anthracis Sterne", "value": "6.25 µg/mL and 12.5 µg/mL"},
      {"measurement": "antimicrobial activity / growth inhibition", "setting": "B. anthracis Sterne", "value": "strong antimicrobial activity"},
      {"measurement": "antimicrobial activity / growth inhibition", "setting": "B. anthracis Sterne; listed as Menadione", "value": "inhibits the growth"},
      {"measurement": "antimicrobial activity / growth inhibition", "setting": "[2]", "value": "inhibits the growth; also recorded: strong antimicrobial activity"},
      {"measurement": "bactericidal concentration", "setting": "[2]", "value": "50 µg/mL and 100 µg/mL"},
      {"measurement": "bacteriostatic concentration", "setting": "[2]", "value": 25, "unit": "µg/mL"},
      {"measurement": "concentration at which TSST-1 production was completely inhibited (no detectable TSST-1)", "setting": "[5]", "value": "≥ 3.1", "unit": "µg/mL"},
      {"measurement": "doses that failed to inhibit TSST-1 production", "setting": "[5]", "value": "< 3.1", "unit": "µg/mL"},
      {"measurement": "generation of resistant mutants", "setting": "S. aureus", "value": "failed to generate resistant mutants"},
      {"measurement": "antimicrobial activity", "setting": "S. aureus CDC587", "value": "comparably bacteriostatic and bactericidal"},
      {"measurement": "antimicrobial activity / growth inhibition", "setting": "[3]", "value": "inhibits the growth; also recorded: strong antimicrobial activity"},
      {"measurement": "bacteriostatic concentration", "setting": "[3]", "value": "6.25 mg/mL and 12.5 mg/mL"}
    ]},
    {"smiles": "CC1=C(C/C=C(\\C)CCC[C@H](C)CCC[C@H](C)CCCC(C)C)C(=O)c2ccccc2C1=O", "note": "[phylloquinone, reference compound]", "values": [
      {"measurement": "antimicrobial activity / growth inhibition", "setting": "S. aureus MN8 [1]", "value": "no antimicrobial activity"},
      {"measurement": "antimicrobial activity / growth inhibition", "setting": "B. anthracis Sterne", "value": "no antimicrobial activity"},
      {"measurement": "antimicrobial activity / growth inhibition", "setting": "[2]", "value": "no antimicrobial activity"},
      {"measurement": "inhibition of TSST-1 production", "setting": "[5]", "value": "did not inhibit"},
      {"measurement": "inhibition of TSST-1 production", "setting": "[6]", "value": "did not inhibit"},
      {"measurement": "antimicrobial activity / growth inhibition", "setting": "[3]", "value": "no antimicrobial activity"},
      {"measurement": "inhibition of TSST-1 production", "setting": "[7]", "value": "did not inhibit"}
    ]}
  ]
}
